In ChEMBL document CHEMBL1201862, “PubChem BioAssay data set” (2004):
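The compound was tested at five concentrations on cells cultured in 96-well plates, with a 48-hour exposure period. At the GI50, growth is halved.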 Activity calls are given as the source filed them. No stated cut-off is given here; in the data, active = GI50 up to about 1.1 µM and inactive = higher.

What was measured:
Assay in all cases: inhibition of tumour cell growth, NCI panel, 48 h
[1] = test system: NCI-H23
[2] = test system: HCC 2998
[3] = test system: A498
[4] = test system: ACHN
[5] = test system: IGROV-1
[6] = test system: HT-29
[7] = test system: HCT-116
[8] = test system: 786-0
[9] = test system: CAKI-1
[10] = test system: HOP-62
[11] = test system: SK-MEL-28
[12] = test system: SNB-19
[13] = test system: HL-60
[14] = test system: K562
[15] = test system: OVCAR-3
[16] = test system: TK-10
[17] = test system: SF-295
[18] = test system: M14

Measured: GI50

COC1(OC)CC(CO)(CNc2nc(N)nc(Cl)c2C=O)C1
inactive: [1] 17.6 µM | [2] 28.1 µM | [3] > 100 µM | [4] 3.48 µM | [5] 20.7 µM | [6] 55.6 µM | [7] 39.3 µM | [8] > 100 µM | [9] 42.6 µM | [10] 42.5 µM | [11] 50 µM | [12] 43.8 µM | [13] 13.6 µM | [14] 5.74 µM | [15] 39.9 µM | [16] > 100 µM | [17] > 100 µM

CCOC(=O)C(C#N)(Cc1c[nH]c2ccccc12)NC(C)=O (centres undefined)
inactive: [1] > 100 µM | [2] > 100 µM | [4] > 100 µM | [5] > 100 µM | [6] > 100 µM | [7] > 100 µM | [9] > 100 µM | [10] > 100 µM | [11] > 100 µM | [13] > 100 µM | [14] > 100 µM | [15] > 100 µM | [16] > 100 µM | [18] > 100 µM | [17] > 100 µM

O=C1C(c2ccccc2)=C(c2ccccc2)C(c2ccc(CCCCCCc3ccc(C4=C(c5ccccc5)C(=O)C(c5ccccc5)=C4c4ccccc4)cc3)cc2)=C1c1ccccc1
inactive: [1] > 100 µM | [2] > 100 µM | [4] > 100 µM | [5] > 100 µM | [6] > 100 µM | [7] > 100 µM | [8] > 100 µM | [10] > 100 µM | [11] > 100 µM | [12] 65 µM | [13] > 100 µM | [14] > 100 µM | [15] > 100 µM | [16] > 100 µM | [18] > 100 µM | [17] > 100 µM

CCCCCCCCC#CCCCCCCC(F)C(=O)O (centres undefined)
inactive: [1] > 100 µM | [2] > 100 µM | [3] > 100 µM | [4] > 100 µM | [5] > 100 µM | [6] > 100 µM | [7] > 100 µM | [8] > 100 µM | [10] > 100 µM | [11] > 100 µM | [12] > 100 µM | [13] 25 µM | [14] 40 µM | [15] > 100 µM | [16] > 100 µM | [18] > 100 µM | [17] > 100 µM

Cc1nc(-n2nc(-c3ccccc3)cc2-c2ccccc2)sc1C(=O)CC(=O)C(=O)Nc1ccc(Cl)c(Cl)c1
inactive: [1] 43.1 µM | [2] > 100 µM | [3] 40.7 µM | [4] 25.1 µM | [5] > 100 µM | [6] 29.9 µM | [7] 64.6 µM | [8] > 100 µM | [9] 83 µM | [10] > 100 µM | [12] 79.4 µM | [13] > 100 µM | [14] 41.6 µM | [15] 69.2 µM | [16] > 100 µM | [18] > 100 µM | [17] 79.3 µM

CC[C@@H]1NC(C(=O)OC)Cc2c1[nH]c1ccccc21 (some centres undefined)
inactive: [1] > 100 µM | [2] > 100 µM | [3] > 100 µM | [4] > 100 µM | [5] > 100 µM | [6] > 100 µM | [7] > 100 µM | [8] > 100 µM | [9] > 100 µM | [11] > 100 µM | [12] > 100 µM | [13] > 100 µM | [14] > 100 µM | [15] > 100 µM | [16] > 100 µM | [18] > 100 µM | [17] > 100 µM
